According to PubChem BioAssay AID1259411 (Chemical Carcinogenesis Research Information System (CCRIS), 2018):
The source made the active and inactive calls. How the calls were made is not given here.

System: rodent carcinogenicity bioassays, tumor incidence
Experiment: CCRIS carcinogenicity studies
Procedure, shortened: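 Archive of carcinogenicity, mutagenicity, tumor promotion and tumor inhibition results drawn from journals, NCI reports and other sources, expert-reviewed; covers 1985-2011 and is no longer updated.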

Measured: carcinogen call

CCN(N=O)C(N)=O
active: Species: HAMSTER, Strain/Sex: SYRIAN/FEMALE, Route: GAVAGE, Dose: 0, 12 MG/ML ((0.2 ML OF A SOLUTION IN ETHYL ACETATE/CORN OIL (1:2)) 1/WK FOR 20 WK (STUDY DURATION: LIFE SPAN), Tumor Site: Type of Lesion: SPLEEN: HEMANGIOSARCOMA, FORESTOMACH: SQUAMOUS CELL CARCINOMA OR PAPILLOMA active; positive | Species: HAMSTER, Strain/Sex: SYRIAN/MALE, Route: GAVAGE, Dose: 0, 12 MG/ML ((0.2 ML OF A SOLUTION IN ETHYL ACETATE/CORN OIL (1:2)) 1/WK FOR 20 WK (STUDY DURATION: 20 WK), Tumor Site: Type of Lesion: SPLEEN: HEMANGIOSARCOMA, FORESTOMACH: SQUAMOUS CELL CARCINOMA OR PAPILLOMA active; positive | Species: HAMSTER, Strain/Sex: SYRIAN/MALE, Route: INTRAPERITONEAL, Dose: 60, 274 MG/KG IN SODIUM CHLORIDE/SODIUM CITRATE ONCE, Tumor Site: Type of Lesion: FORESTOMACH: SQUAMOUS CELL PAPILLOMA active; positive | Species: MOUSE, Route: INTRAPERITONEAL, Tumor Site: Type of Lesion: LIVER, KIDNEY, OVARIES, LUNG, HARDERIAN GLAND, LYMPHATIC SYSTEM, STOMACH, Tumor Site: Type of Lesion: LIVER, KIDNEY, OVARIES, LUNG, HARDERIAN GLAND, LYMPHATIC SYSTEM, STOMACH active; positive | Species: MOUSE, Route: SUBCUTANEOUS, Tumor Site: Type of Lesion: LIVER, LUNG, LYMPHATIC SYSTEM, Tumor Site: Type of Lesion: LIVER, LUNG, LYMPHATIC SYSTEM active; positive | Species: RAT, Route: INTRAPERITONEAL, Tumor Site: Type of Lesion: LYMPHATIC SYSTEM: LYMPHOMA, HEMATOPOIETIC SYSTEM (LEUKEMIA) active; positive | Species: RAT, Route: INTRAVENOUS, Tumor Site: Type of Lesion: BRAIN, NERVOUS SYSTEM (PERIPHERAL), HEMATOPOIETIC SYSTEM (LEUKEMIA), UTERUS, VAGINA, Tumor Site: Type of Lesion: BRAIN, NERVOUS SYSTEM (PERIPHERAL), HEMATOPOIETIC SYSTEM (LEUKEMIA), UTERUS, VAGINA active; positive | Species: RAT, Route: ORAL, Tumor Site: Type of Lesion: BRAIN, NERVOUS SYSTEM (PERIPHERAL), HEMATOPOIETIC SYSTEM (LEUKEMIA), Tumor Site: Type of Lesion: BRAIN, NERVOUS SYSTEM (PERIPHERAL), HEMATOPOIETIC SYSTEM (LEUKEMIA) active; positive | Species: RAT, Route: PRE-NATAL EXPOSURE, Tumor Site: Type of Lesion: NERVOUS SYSTEM active; positive | Species: RAT, Route: SUBCUTANEOUS, Tumor Site: Type of Lesion: BRAIN, NERVOUS SYSTEM (PERIPHERAL) active; positive | Species: RAT, Strain/Sex: F344/FEMALE, Route: GAVAGE, Dose: 0, 6, 12 MG/ML (TOTAL DOSE 0; 0.4; 0.8 MMOL) IN 2 ML ETHYL ACETATE AND CORN OIL (1:2) 2/WK FOR 20 WK (STUDY DURATION: LI, Dose: 0, 6, 12 MG/ML (TOTAL DOSE 0; 0.4; 0.8 MMOL) IN 2 ML ETHYL ACETATE AND CORN OIL (1:2) 2/WK FOR 20 WK (STUDY DURATION: LI, Tumor Site: Type of Lesion: FORESTOMACH: SQUAMOUS CELL CARCINOMA, LUNG: TUMOR, MAMMARY GLAND: TUMOR, Tumor Site: Type of Lesion: FORESTOMACH: SQUAMOUS CELL CARCINOMA, LUNG: TUMOR, MAMMARY GLAND: TUMOR active; positive | Species: RAT, Strain/Sex: F344/FEMALE, Route: GAVAGE, Dose: 0, 6, 12 MG/ML IN 0.2 ML ETHYL ACETATE AND CORN OIL 2/WK FOR 20 WK (STUDY DURATION: LIFESPAN), Dose: 0, 6, 12 MG/ML IN 0.2 ML ETHYL ACETATE AND CORN OIL 2/WK FOR 20 WK (STUDY DURATION: LIFESPAN), Tumor Site: Type of Lesion: FORESTOMACH: TUMOR, LUNG: TUMOR, MAMMARY GLAND: TUMOR, UTERUS: TUMOR, ZYMBAL GLAND: TUMOR, Tumor Site: Type of Lesion: FORESTOMACH: TUMOR, LUNG: TUMOR, MAMMARY GLAND: TUMOR, UTERUS: TUMOR, ZYMBAL GLAND: TUMOR active; positive | Species: RAT, Strain/Sex: F344/FEMALE, Route: INTRAVESICULAR, Dose: 0, 1.2 MG 2/WK FOR 20 WK (STUDY DURATION: LIFETIME), Tumor Site: Type of Lesion: BLADDER: TUMOR active; positive | Species: RAT, Strain/Sex: F344/FEMALE, Route: INTRAVESICULAR, Dose: 0, 2.4 MG 2/WK FOR 14 WK (STUDY DURATION: LIFETIME), Tumor Site: Type of Lesion: BLADDER: TUMOR active; positive | Species: RAT, Strain/Sex: F344/FEMALE, Route: ORAL, Dose: 0, 0.3, 1, 3, 10 PPM IN DRINKING WATER FOR 104 WK (STUDY DURATION: 111 WK), Dose: 0, 0.3, 1, 3, 10 PPM IN DRINKING WATER FOR 104 WK (STUDY DURATION: 111 WK), Tumor Site: Type of Lesion: BRAIN: GLIOMA, UTERUS: ENDOMETRIAL STROMAL POLYP, MAMMARY GLAND: ADENOCARCINOMA, HEMATOPOIETIC SYSTEM: MONONUCLEAR CELL, Tumor Site: Type of Lesion: BRAIN: GLIOMA, UTERUS: ENDOMETRIAL STROMAL POLYP, MAMMARY GLAND: ADENOCARCINOMA, HEMATOPOIETIC SYSTEM: MONONUCLEAR CELL active; positive
